Data taken from US20250327097A1, “ORGANISMS PRODUCING LESS CROTONIC ACID” (Global Bioenergies, priority 2021, published 2025).

B1: ScFdc-UbiX: Fdc homologue, Uniprot Q03034, co-expressed with UbiX in pETDuet (protein, UniProt Q03034 1-503, looked up)
Ferulic acid decarboxylase 1: MRKLNPALEFRDFIQVLKDEDDLIEITEEIDPNLEVGAIMRKAYESHLPAPLFKNLKGASKDLFSILGCPAGLRSKEKGDHGRIAHHLGLDPKTTIKEIIDYLLECKEKEPLPPITVPVSSAPCKTHILSEEKIHLQSLPTPYLHVSDGGKYLQTYGMWILQTPDKKWTNWSIARGMVVDDKHITGLVIKPQHIRQIADSWAAIGKANEIPFALCFGVPPAAILVSSMPIPEGVSESDYVGAILGESVPVVKCETNDLMVPATSEMVFEGTLSLTDTHLEGPFGEMHGYVFKSQGHPCPLYTVKAMSYRDNAILPVSNPGLCTDETHTLIGSLVATEAKELAIESGLPILDAFMPYEAQALWLILKVDLKGLQALKTTPEEFCKKVGDIYFRTKVGFIVHEIILVADDIDIFNFKEVIWAYVTRHTPVADQMAFDDVTSFPLAPFVSQSSRSKTMKGGKCVTNCIFRQQYERSFDYITCNFEKGYPKGLVDKVNENWKRYGYK
modifications: co-expressed with UbiX
notes: Fdc homologue, Uniprot Q03034, co-expressed with UbiX in pETDuet
B2: CdFdc-UbiX: Fdc homologue, Uniprot B9WJ66, co-expressed with UbiX in pETDuet (protein, UniProt B9WJ66 1-513, looked up)
Ferulic acid decarboxylase 1: MSLNPALKFRDFIQVLKNEGDLIEIDTEVDPNLEVGAITRKAYENKLAAPLFNNLKQDPENIDPKNLFRILGCPGGLRGFGNDHARIALHLGLDSQTPMKEIIDFLVANRNPKKYIPPVLVPNDQSPHKKHHLTKEQIDLTKLPVPLLHHGDGGKFIQTYGMWVLQTPDKSWTNWSIARGMVHDSKSITGLVINPQHVKQVSDAWVAAGKGDKIPFALCFGVPPAAILVSSMPIPDGATEAEYIGGLCNQAVPVVKCETNDLEVPADCEMVFEGYLDRDTLVREGPFGEMHGYCFPKDHHTQPLYRVNHISYRDQAIMPISNPGLCTDETHTLIGGLVSAETKYLISQHPVLSKIVEDVFTPYEAQALWLAVKINTHELVKLKTNAKELSNLVGDFLFRSKECYKVCSILHEIILVGDDIDIFDFKQLIWAYTTRHTPVQDQLYFDDVKPFALAPFASQGPLIKTRQGGKCVTTCIFPKQFTDPDFEFVTCNFNGYPEEVKNKISQNWDKYYK
modifications: co-expressed with UbiX
notes: Fdc homologue, Uniprot B9WJ66, co-expressed with UbiX in pETDuet
B3: UbiX alone: UbiX (E. coli K-12) expressed without Fdc, control (protein, UniProt P0AG03 1-189, looked up)
Flavin prenyltransferase UbiX: MKRLIVGISGASGAIYGVRLLQVLRDVTDIETHLVMSQAARQTLSLETDFSLREVQALADVTHDARDIAASISSGSFQTLGMVILPCSIKTLSGIVHSYTDGLLTRAADVVLKERRPLVLCVRETPLHLGHLRLMTQAAEIGAVIMPPVPAFYHRPQSLDDVINQTVNRVLDQFAITLPEDLFARWQGA
B4: FabV: purified FabV from Treponema denticola (EC 1.3.1.44), Uniprot Q73Q47 (protein, listed as Treponema denticola)
chain: MIVKPMVRNNICLNAHPQGCKKGVEDQIEYTKKRITAEVKAGAKAPKNVLVLGCSNGYGLASRITAAFGYGAATIGVSFEKAGSETKYGTPGWYNNLAFDEAAKREGLYSVTIDGDAFSDEIKAQVIEEAKKKGIKFDLIVYSLASPVRTDPDTGIMHKSVLKPFGKTFTGKTVDPFTGELKEISAEPANDEEAAATVKVMGGEDWERWIKQLSKEGLLEEGCITLAYSYIGPEATQALYRKGTIGKAKEHLEATAHRLNKENPSIRAFVSVNKGLVTRASAVIPVIPLYLASLFKVMKEKGNHEGCIEQITRLYAERLYRKDGTIPVDEENRIRIDDWELEEDVQKAVSALMEKVTGENAESLTDLAGYRHDFLASNGFDVEGINYEAEVERFDRI
modifications: FabV
notes: purified FabV from Treponema denticola (EC 1.3.1.44), Uniprot Q73Q47

Assays:
TaFdcV = assay: Acid binding and cycloadduct formation with TaFdcV (UV-Vis, ESI-MS, co-crystallization)
Description: TaFdcV (500 μL, 0.45 mM protein, 25 mM HEPES, 150 mM KCl, pH 6.8) was incubated with crotonic or 2-butynoic acid. The formation of the prFMN-crotonic acid cycloadduct was followed by UV-Vis spectroscopy and additional acid were added until full conversion (complete loss of the 380 nm peak). The protein was desalted to 25 mM HEPES, 150 mM KCl, pH 6.8 and plated for crystal trials.

[1] = test system: ferulic acid decarboxylase (FDC); assay: Inhibition of ferulic acid decarboxylase; assay type: biochemical
Excerpt: In recombinant organisms or microorganisms, 3-methylcrotonic acid, the substrate of FDC, can be produced from acetyl-CoA in a multistep enzymatic process. The final conversion of 3-methylcrotonic acid into isobutene can be carried out in the same recombinant organism or microorganism that has been used for the production of 3-methylcrotonic acid. In such a one-step process, it is required that the recombinant organism or microorganism encodes the enzyme FDC. Alternatively, isobutene may be produced from 3-methylcrotonic acid in a two-step process. For that, a fermentation culture medium of a recombinant organism or microorganism comprising the produced 3-methylcrotonic acid may be contacted with a recombinant organism or microorganism encoding the enzyme FDC in an in vivo or in vitro biotransformation reaction. In an alternative two-step process, a first recombinant organism or microorganism may be used to convert acetyl-CoA into 3-hydroxyisovaleric acid and the produced 3-hydroxyisovaleric acid may then be converted into isobutene by a second recombinant organism or microorganism (via 3-methylcrotonic acid and FDC).

TaFdc = assay: Acid binding and cycloadduct formation with TaFdc wild-type (UV-Vis)
AnFdc = AnFdc (Aspergillus niger, UniProt A2QHE5); assay: Quantitative GC assay of pentene production from hexenoic acid; assay type: biochemical
AnFdc wild-type = AnFdc wild-type (Aspergillus niger, UniProt A2QHE5); assay: Crotonic acid binding by UV-Vis spectra, AnFdc wild-type; conditions: 2-h incubation
AnFdcII = AnFdcII (Aspergillus niger, UniProt A2QHE5, P438W/R435P/T395M); assay type: binding
3-methylcrotonic acid = assay: Initial in vivo screening of Fdc homologues co-expressed with UbiX for 3-methylcrotonic acid decarboxylation (isobutene by GC); assay type: cell-based, E. coli; conditions: isobutene in headspace from 10 mM 3-methylcrotonic acid; Fdc (MCS1, N-terminal 6His-tag) and UbiX (MCS2) in pETDuet
crotonyl-CoA = assay: Coupled assay positive control: purified FabV with crotonyl-CoA; assay type: biochemical, Treponema denticola; conditions: 1 mM crotonyl-CoA, 100 μg/ml FabV, 18 h at 34° C.
Description: The acid-CoA ligases were tested as purified enzymes with a coupled assay using purified FabV from Treponema denticola (EC 1.3.1.44) (Uniprot Accession No: Q73Q47) (to convert crotonyl-CoA to butyryl-CoA). The reaction was carried out as follows: 50 μg/ml acid-CoA ligase and 100 μg/ml FabV with a buffered solution containing 100 mM Tris-HCl pH7.5, 20 mM NaCl, 100 mM KCl, 2 mM MgCl2, 1 mM crotonic acid (TCI chemicals), 1 mM ATP (Sigma-Aldrich), 1 mM coenzyme A (Sigma-Aldrich) and 1 mM NADH (Sigma-Aldrich) were incubated 18 h at 34° C. in a water bath, and the reaction was stopped with acetonitrile. […] The produced butyryl-CoA (Sigma-Aldrich) and the consumed crotonic acid (TCI chemicals) were quantified by HPLC with a calibration curve. The samples were injected on a Zorbax SB-Aq column (Agilent) at 30° C. and eluted with 8.4 mM H2SO4 and a gradient of acetonitrile.
The CoA-transferase was tested as purified enzyme with a coupled assay using purified FabV from Treponema denticola (EC 1.3.1.44) (Uniprot Accession No: Q73Q47) (to convert crotonyl-CoA to butyryl-CoA). […] The produced butyryl-CoA (Sigma-Aldrich) and the consumed crotonic acid (TCI chemicals) were quantified by HPLC with a calibration curve. […]

Row | Molecule | binding to TaFdcV, UV-Vis spectrum after desalting (TaFdcV) | inhibition of FDC [1] | ppm Average (3-methylcrotonic acid) [ppm] | other results
1 | CC#CC(=O)O [2-butynoic acid] | covalent inhibitory adduct is formed | – | – | state of the adduct by ESI-MS and co-crystallization (TaFdcV): stalls as Int1
2 | CCCC=CC(=O)O [2-hexenoic acid] | irreversibly binds | irreversible inhibitors | – | binding to TaFdc, UV-Vis spectrum after desalting (TaFdc): irreversibly binds; pentene production from hexenoic acid (AnFdc): limited to a single turnover
3 | CCC=CC(=O)O [2-pentenoic acid] | irreversibly binds | irreversible inhibitors | – | binding to TaFdc, UV-Vis spectrum after desalting (TaFdc): irreversibly binds
4 | C/C=C/C(=O)O [crotonic acid] | covalent inhibitory adduct is formed | irreversible inhibitors | – | binding by UV-Vis spectra (AnFdc wild-type): cannot be detected; binding by UV-Vis spectra (AnFdcII): readily bind the inhibitor
5 | B1 | – | – | 17.6 | –
6 | B2 | – | – | 4.8 | –
7 | B3 | – | – | 3.3 | –
8 | B4 | – | – | – | conversion of crotonyl-CoA to butyryl-CoA (crotonyl-CoA): could convert all of it to butyryl-CoA
